# According to PubChem BioAssay (NCI):
#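 Briefly, cells in 96-well plates were exposed to five compound concentrations for 48 h, and endpoints were estimated by linear interpolation. TGI: total growth inhibition.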
# Tests used:
# Assay in all cases: inhibition of tumour cell growth, NCI panel, 48 h
# [1] = tested on: K-562 leukemia
# [2] = tested on: SK-MEL-5 melanoma
# [3] = tested on: MALME-3M melanoma
# [4] = tested on: KM12 colon
# [5] = tested on: SNB-19 CNS
# [6] = tested on: A498 renal
# [7] = tested on: NCI-H226 lung
# [8] = tested on: 786-0 renal
# [9] = tested on: LXFL 529 NSCLC
# [10] = tested on: SF-295 CNS
# [11] = tested on: SW-620 colon
# [12] = tested on: SN12C renal
# [13] = tested on: ACHN renal
# [14] = tested on: TK-10 renal
# [15] = tested on: HCC-2998 colon
# [16] = tested on: DMS 114 small cell lung
# [17] = tested on: U251 CNS
# [18] = tested on: SK-OV-3 ovarian
# [19] = tested on: UACC-257 melanoma
# [20] = tested on: IGROV1 ovarian
# [21] = tested on: SK-MEL-28 melanoma
# [22] = tested on: COLO 205 colon
# [23] = tested on: UO-31 renal
# [24] = tested on: SK-MEL-2 melanoma
# [25] = tested on: CCRF-CEM leukemia
# [26] = tested on: DLD-1 colon
# [27] = tested on: KM20L2 colon
# [28] = tested on: OVCAR-3 ovarian
# [29] = tested on: NCI-H460 lung
# [30] = tested on: SNB-75 CNS
# [31] = tested on: NCI-H23 lung
# [32] = tested on: CAKI-1 renal
# [33] = tested on: HT29 colon
# [34] = tested on: SNB-78 CNS
# [35] = tested on: HCT-116 colon
# [36] = tested on: NCI-H522 lung
# [37] = tested on: OVCAR-8 ovarian
# [38] = tested on: HOP-18 NSCLC
# [39] = tested on: SF-539 CNS
# [40] = tested on: EKVX NSCLC
# [41] = tested on: A549 NSCLC
# [42] = tested on: RPMI-8226 leukemia
# [43] = tested on: SF-268 CNS
# [44] = tested on: MOLT-4 leukemia
# [45] = tested on: SR leukemia
# [46] = tested on: DMS 273 small cell lung
# [47] = tested on: M19-MEL melanoma
# [48] = tested on: RXF 393 renal
# [49] = tested on: HL-60(TB) leukemia
# [50] = tested on: UACC-62 melanoma
# [51] = tested on: OVCAR-5 ovarian
# [52] = tested on: M14 melanoma
# [53] = tested on: MCF7 breast
# [54] = tested on: HOP-62 NSCLC
# [55] = tested on: HCT-15 colon
# [56] = tested on: DU-145 prostate
# [57] = tested on: T-47D breast
# [58] = tested on: HOP-92 NSCLC
# [59] = tested on: PC-3 prostate
# [60] = tested on: HS 578T breast
# [61] = tested on: MDA-MB-435
# [62] = tested on: BT-549 breast
# [63] = tested on: MDA-MB-231 breast
# [64] = tested on: NCI/ADR-RES ovarian
# [65] = tested on: MDA-N
# [66] = tested on: OVCAR-4 ovarian
# [67] = tested on: LOX IMVI melanoma
# [68] = tested on: XF 498 CNS
structure (smiles),measurement,setting,value
C1CN2CCO[SiH](O1)OCC2,TGI,[1],> 100 µM
same,TGI,[2],> 100 µM
same,TGI,[3],> 100 µM
same,TGI,[4],> 100 µM
same,TGI,[5],> 100 µM
same,TGI,[6],> 100 µM
same,TGI,[7],> 100 µM
same,TGI,[8],> 100 µM
same,TGI,[9],> 100 µM
same,TGI,[10],> 100 µM
same,TGI,[11],> 100 µM
same,TGI,[12],> 100 µM
same,TGI,[13],> 100 µM
same,TGI,[14],> 100 µM
same,TGI,[15],> 100 µM
same,TGI,[16],> 100 µM
same,TGI,[17],> 100 µM
same,TGI,[18],> 100 µM
same,TGI,[19],> 100 µM
same,TGI,[20],> 100 µM
same,TGI,[21],> 100 µM
same,TGI,[22],> 100 µM
same,TGI,[23],> 100 µM
same,TGI,[24],> 100 µM
same,TGI,[25],> 100 µM
same,TGI,[26],> 100 µM
same,TGI,[27],> 100 µM
same,TGI,[28],> 100 µM
same,TGI,[29],> 100 µM
same,TGI,[30],> 100 µM
same,TGI,[31],> 100 µM
same,TGI,[32],> 100 µM
same,TGI,[33],> 100 µM
same,TGI,[34],> 100 µM
same,TGI,[35],> 100 µM
same,TGI,[36],> 100 µM
same,TGI,[37],> 100 µM
same,TGI,[38],> 100 µM
same,TGI,[39],> 100 µM
same,TGI,[40],> 100 µM
same,TGI,[41],> 100 µM
same,TGI,[42],> 100 µM
same,TGI,[43],> 100 µM
same,TGI,[44],> 100 µM
same,TGI,[45],> 100 µM
same,TGI,[46],> 100 µM
same,TGI,[47],> 100 µM
same,TGI,[48],> 100 µM
same,TGI,[49],> 100 µM
same,TGI,[50],> 100 µM
C/C(=N\NC(=S)NC(C)(C)C)c1nc2ncccc2[nH]1,TGI,[1],> 100 µM
same,TGI,[51],> 21.7 µM
same,TGI,[2],14.1 µM
same,TGI,[3],60.4 µM
same,TGI,[52],> 100 µM
same,TGI,[53],> 100 µM
same,TGI,[54],> 84.9 µM
same,TGI,[55],> 100 µM
same,TGI,[56],> 57.5 µM
same,TGI,[4],> 100 µM
same,TGI,[5],> 90.5 µM
same,TGI,[6],> 100 µM
same,TGI,[7],13.9 µM
same,TGI,[8],> 100 µM
same,TGI,[57],> 33.7 µM
same,TGI,[58],42.9 µM
same,TGI,[10],> 100 µM
same,TGI,[11],> 100 µM
same,TGI,[59],> 100 µM
same,TGI,[12],> 100 µM
same,TGI,[13],> 100 µM
same,TGI,[14],> 100 µM
same,TGI,[15],> 68.6 µM
same,TGI,[17],> 100 µM
same,TGI,[18],12.6 µM
same,TGI,[19],> 100 µM
same,TGI,[20],50.6 µM
same,TGI,[60],> 30.2 µM
same,TGI,[21],> 100 µM
same,TGI,[61],> 78.4 µM
same,TGI,[22],> 31.6 µM
same,TGI,[23],5.82 µM
same,TGI,[62],20.3 µM
same,TGI,[24],> 80.3 µM
same,TGI,[63],> 100 µM
same,TGI,[25],35.1 µM
same,TGI,[64],> 84.4 µM
same,TGI,[28],> 100 µM
same,TGI,[29],55 µM
same,TGI,[30],> 84.5 µM
same,TGI,[31],> 100 µM
same,TGI,[32],16.4 µM
same,TGI,[33],> 100 µM
same,TGI,[65],> 100 µM
same,TGI,[35],> 100 µM
same,TGI,[36],51.2 µM
same,TGI,[37],> 100 µM
same,TGI,[39],13.6 µM
same,TGI,[40],> 65 µM
same,TGI,[66],> 100 µM
same,TGI,[67],> 100 µM
same,TGI,[41],43.4 µM
same,TGI,[42],> 100 µM
same,TGI,[43],> 31.6 µM
same,TGI,[44],23.7 µM
same,TGI,[45],> 72.2 µM
same,TGI,[48],> 100 µM
same,TGI,[49],> 21.6 µM
same,TGI,[50],46.7 µM
O=C1C=CC2(O)OCC3C=C4O[C@@H]5OC6(CCCCC6)O[C@@H]5C4[C@@H]2[C@@H]13 (some centres undefined),TGI,[1],44.8 µM
same,TGI,[51],> 100 µM
same,TGI,[2],> 100 µM
same,TGI,[3],62.1 µM
same,TGI,[52],43.8 µM
same,TGI,[54],> 100 µM
same,TGI,[55],58.7 µM
same,TGI,[4],> 100 µM
same,TGI,[5],> 100 µM
same,TGI,[6],> 100 µM
same,TGI,[7],> 100 µM
same,TGI,[8],41.2 µM
same,TGI,[9],29.7 µM
same,TGI,[58],33.4 µM
same,TGI,[10],> 100 µM
same,TGI,[11],71.4 µM
same,TGI,[12],> 100 µM
same,TGI,[13],88.4 µM
same,TGI,[14],48.6 µM
same,TGI,[15],> 100 µM
same,TGI,[16],69.2 µM
same,TGI,[17],> 100 µM
same,TGI,[18],> 100 µM
same,TGI,[19],35 µM
same,TGI,[20],> 100 µM
same,TGI,[21],44.7 µM
same,TGI,[22],30.9 µM
same,TGI,[23],37.3 µM
same,TGI,[24],> 100 µM
same,TGI,[25],45.8 µM
same,TGI,[26],50.6 µM
same,TGI,[27],> 100 µM
same,TGI,[28],52.2 µM
same,TGI,[29],> 100 µM
same,TGI,[30],> 100 µM
same,TGI,[31],67.3 µM
same,TGI,[32],48.9 µM
same,TGI,[33],50.9 µM
same,TGI,[34],83.3 µM
same,TGI,[35],32.1 µM
same,TGI,[68],72.6 µM
same,TGI,[36],27.9 µM
same,TGI,[37],77.2 µM
same,TGI,[38],> 100 µM
same,TGI,[40],78.7 µM
same,TGI,[66],59.9 µM
same,TGI,[67],> 100 µM
same,TGI,[41],> 100 µM
same,TGI,[42],58.9 µM
same,TGI,[43],> 100 µM
same,TGI,[44],70.5 µM
same,TGI,[46],> 100 µM
same,TGI,[47],54.9 µM
same,TGI,[49],42.1 µM
same,TGI,[50],> 100 µM
